What all share (test): relative viability (nuclei count vs DMSO), 5 days (fraction); higher = more cells survive
Compound in the assay “Ispinesib + Phenformin”: Cc1ccc(C(=O)N(CCCN)[C@@H](c2nc3cc(Cl)ccc3c(=O)n2Cc2ccccc2)C(C)C)cc1 [Ispinesib] + N=C(N)NC(=N)NCCc1ccccc1 [Phenformin] (partner 250 µM)
A digest of the protocol:
(§1)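 Cells from lung cancer lines were seeded into 1536-well plates and, one day later, dosed by pin tool. Treatments were either a single drug or a fixed dose of an anchor drug with five library-drug doses (not always all listed) in √10 steps. After 5 days, nuclei were stained in a one-step fixation (final 0.05% Triton X-100, 1% formaldehyde, 1 ug/ml Hoechst) and counted on 4× images, and relative viability is the treated-to-vehicle nuclei ratio, as the median of duplicate plates.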

Compound in the assay “Ispinesib + OSI-027”: Cc1ccc(C(=O)N(CCCN)[C@@H](c2nc3cc(Cl)ccc3c(=O)n2Cc2ccccc2)C(C)C)cc1 [Ispinesib] + COc1cccc2cc(-c3nc([C@H]4CC[C@H](C(=O)O)CC4)n4ncnc(N)c34)[nH]c12 [OSI-027] (partner 0.5 µM)
The method in brief: as §1

Compound in the assay “Linsitinib + Dasatinib”: C[C@]1(O)C[C@@H](c2nc(-c3ccc4ccc(-c5ccccc5)nc4c3)c3c(N)nccn32)C1 [Linsitinib] + Cc1nc(Nc2ncc(C(=O)Nc3c(C)cccc3Cl)s2)cc(N2CCN(CCO)CC2)n1 [Dasatinib] (partner 0.075 µM)
A digest of the protocol: as §1

Compound in the assay “Linsitinib + Lapatinib”: C[C@]1(O)C[C@@H](c2nc(-c3ccc4ccc(-c5ccccc5)nc4c3)c3c(N)nccn32)C1 [Linsitinib] + CS(=O)(=O)CCNCc1ccc(-c2ccc3ncnc(Nc4ccc(OCc5cccc(F)c5)c(Cl)c4)c3c2)o1 [Lapatinib] (partner 2 µM)
A digest of the protocol: as §1

Experimental findings from the supplement of paper PMC10307832 are described below.

As for EKVX, the relative viability with Ispinesib + Phenformin (first compound 0.001 µM) amounted to 0.24; with Ispinesib + Phenformin (first compound 0.003162 µM), 0.244; with Ispinesib + Phenformin (first compound 0.01 µM), 0.243; with Ispinesib + Phenformin (first compound 0.03162 µM) it was 0.238; with Ispinesib + Phenformin (first compound 0.1 µM), 0.152; with Ispinesib + OSI-027 (first compound 0.001 µM), 0.731. Also, the relative viability in the assay with Ispinesib + OSI-027 (first compound 0.003162 µM) was found to be 0.75; with Ispinesib + OSI-027 (first compound 0.01 µM), 0.777; with Ispinesib + OSI-027 (first compound 0.03162 µM), 0.75; with Ispinesib + OSI-027 (first compound 0.1 µM), 0.634; with Linsitinib + Dasatinib (first compound 0.01 µM), 0.603; with Linsitinib + Dasatinib (first compound 0.03162 µM) it was 0.625. For the same cell line, the relative viability turned out to be 0.532 in the assay with Linsitinib + Dasatinib (first compound 0.1 µM); 0.513 in the assay with Linsitinib + Dasatinib (first compound 0.3162 µM); 0.5 with Linsitinib + Dasatinib (first compound 1 µM); 0.212 with Linsitinib + Lapatinib (first compound 0.01 µM); 0.262 with Linsitinib + Lapatinib (first compound 0.03162 µM); 0.231 with Linsitinib + Lapatinib (first compound 0.1 µM). Moreover, the figures for the relative viability with Linsitinib + Lapatinib (first compound 0.3162 µM) and with Linsitinib + Lapatinib (first compound 1 µM) were 0.23 and 0.161, respectively.
On to EMC-BAC-2, for which the relative viability worked out at 0.557 with Ispinesib + Phenformin (first compound 0.001 µM); 0.545 with Ispinesib + Phenformin (first compound 0.003162 µM); 0.534 with Ispinesib + Phenformin (first compound 0.01 µM); 0.372 in the assay with Ispinesib + Phenformin (first compound 0.03162 µM); 0.209 in the assay with Ispinesib + Phenformin (first compound 0.1 µM); 0.388 with Ispinesib + OSI-027 (first compound 0.001 µM). The relative viability with Ispinesib + OSI-027 (first compound 0.003162 µM) turned out to be 0.402; in the assay with Ispinesib + OSI-027 (first compound 0.01 µM), 0.356; with Ispinesib + OSI-027 (first compound 0.03162 µM) it was 0.25; with Ispinesib + OSI-027 (first compound 0.1 µM) it was 0.309; in the assay with Linsitinib + Dasatinib (first compound 0.01 µM), 0.318; in the assay with Linsitinib + Dasatinib (first compound 0.03162 µM) it was 0.323. The relative viability in the assay with Linsitinib + Dasatinib (first compound 0.1 µM) was 0.289; with Linsitinib + Dasatinib (first compound 0.3162 µM), 0.445; in the assay with Linsitinib + Dasatinib (first compound 1 µM), 0.197; with Linsitinib + Lapatinib (first compound 0.01 µM), 0.914; in the assay with Linsitinib + Lapatinib (first compound 0.03162 µM), 0.893; with Linsitinib + Lapatinib (first compound 0.1 µM) it was 0.806. Also, the relative viability with Linsitinib + Lapatinib (first compound 0.3162 µM) was found to be 0.686; in the assay with Linsitinib + Lapatinib (first compound 1 µM) it was 0.694.
With EPLC-272H, the relative viability with Ispinesib + Phenformin (first compound 0.001 µM) is 0.317; in the assay with Ispinesib + Phenformin (first compound 0.003162 µM), 0.283; with Ispinesib + Phenformin (first compound 0.01 µM), 0.262; with Ispinesib + Phenformin (first compound 0.03162 µM), 0.217; with Ispinesib + Phenformin (first compound 0.1 µM), 0.145; with Ispinesib + OSI-027 (first compound 0.001 µM) it was 0.242. Also, the relative viability amounted to 0.281 with Ispinesib + OSI-027 (first compound 0.003162 µM); 0.238 in the assay with Ispinesib + OSI-027 (first compound 0.01 µM); 0.167 in the assay with Ispinesib + OSI-027 (first compound 0.03162 µM); 0.152 in the assay with Ispinesib + OSI-027 (first compound 0.1 µM); 0.359 with Linsitinib + Dasatinib (first compound 0.01 µM); 0.407 with Linsitinib + Dasatinib (first compound 0.03162 µM). In addition, the relative viability worked out at 0.261 with Linsitinib + Dasatinib (first compound 1 µM); 0.977 in the assay with Linsitinib + Lapatinib (first compound 0.01 µM); 0.948 with Linsitinib + Lapatinib (first compound 0.03162 µM); 0.999 with Linsitinib + Lapatinib (first compound 0.1 µM); 0.736 with Linsitinib + Lapatinib (first compound 1 µM).
In the case of H3255, the relative viability was 0.347 with Ispinesib + Phenformin (first compound 0.001 µM); 0.37 in the assay with Ispinesib + Phenformin (first compound 0.003162 µM); 0.333 in the assay with Ispinesib + Phenformin (first compound 0.01 µM); 0.259 with Ispinesib + Phenformin (first compound 0.03162 µM); 0.259 with Ispinesib + Phenformin (first compound 0.1 µM); 0.577 with Ispinesib + OSI-027 (first compound 0.001 µM). In addition, the relative viability was 0.574 with Ispinesib + OSI-027 (first compound 0.003162 µM); 0.588 in the assay with Ispinesib + OSI-027 (first compound 0.01 µM); 0.552 with Ispinesib + OSI-027 (first compound 0.03162 µM); 0.414 with Ispinesib + OSI-027 (first compound 0.1 µM); 0.347 in the assay with Linsitinib + Dasatinib (first compound 0.01 µM); 0.369 with Linsitinib + Dasatinib (first compound 0.03162 µM). For the same cell line, the relative viability with Linsitinib + Dasatinib (first compound 0.1 µM) was 0.347; with Linsitinib + Dasatinib (first compound 0.3162 µM), 0.334; with Linsitinib + Dasatinib (first compound 1 µM) it was 0.344; with Linsitinib + Lapatinib (first compound 0.01 µM), 0.247; in the assay with Linsitinib + Lapatinib (first compound 0.03162 µM), 0.284; in the assay with Linsitinib + Lapatinib (first compound 0.1 µM) it was 0.19. Also, the relative viability with Linsitinib + Lapatinib (first compound 0.3162 µM) stood at 0.245; in the assay with Linsitinib + Lapatinib (first compound 1 µM), 0.206.
HARA: the relative viability was found to be 0.492 in the assay with Ispinesib + Phenformin (first compound 0.001 µM); 0.509 in the assay with Ispinesib + Phenformin (first compound 0.003162 µM); 0.614 with Ispinesib + Phenformin (first compound 0.01 µM); 0.343 with Ispinesib + Phenformin (first compound 0.03162 µM); 0.113 in the assay with Ispinesib + Phenformin (first compound 0.1 µM); 0.641 in the assay with Ispinesib + OSI-027 (first compound 0.001 µM). Moreover, the relative viability amounted to 0.553 with Ispinesib + OSI-027 (first compound 0.003162 µM); 0.535 with Ispinesib + OSI-027 (first compound 0.01 µM); 0.0672 with Ispinesib + OSI-027 (first compound 0.03162 µM); 0.0972 with Ispinesib + OSI-027 (first compound 0.1 µM); 0.278 with Linsitinib + Dasatinib (first compound 0.01 µM); 0.213 with Linsitinib + Dasatinib (first compound 0.03162 µM). In addition, the relative viability is 0.294 in the assay with Linsitinib + Dasatinib (first compound 0.1 µM); 0.204 in the assay with Linsitinib + Dasatinib (first compound 1 µM); 0.598 with Linsitinib + Lapatinib (first compound 0.01 µM); 0.746 in the assay with Linsitinib + Lapatinib (first compound 0.03162 µM); 0.739 with Linsitinib + Lapatinib (first compound 0.1 µM); 0.671 with Linsitinib + Lapatinib (first compound 0.3162 µM). The relative viability with Linsitinib + Lapatinib (first compound 1 µM) was found to be 0.329.
